Source: US7816522B2, “Triazolone derivatives” (Eisai Co., Ltd., priority 2006, dated 2010)
Where a name gives a salt, the structure may show the parent alone.

Target: T1, human clotting factor VIIa (Homo sapiens, UniProt P08709)
T1 construct: a human clotting factor VIIa (hereinafter, “Factor VIIa”) purified sample; purchased Enzyme Research Laboratories HFVIIa
Experiment: Inhibitory activity against clotting factor VIIa (chromogenic substrate Spectrozyme FVIIa, TF/Factor VIIa enzyme solution)
Format: biochemical
Settings: human Factor VIIa 5 nmol/L with human TF 10 nmol/L, room temperature 40 minutes, 405 nm
In short: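 Human Factor VIIa (5 nmol/L) with human TF (10 nmol/L) in Tris-BSA buffer pH 7.4 containing 15 mmol/L CaCl2 and cephalin, with Spectrozyme FVIIa substrate. Reaction 40 min at room temperature; 4-nitroanilide read at 405 nm. IC50 by non-linear regression over 100 μmol/L–0.1 nmol/L.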

T1 sequence (P08709 213-466 limits assumed): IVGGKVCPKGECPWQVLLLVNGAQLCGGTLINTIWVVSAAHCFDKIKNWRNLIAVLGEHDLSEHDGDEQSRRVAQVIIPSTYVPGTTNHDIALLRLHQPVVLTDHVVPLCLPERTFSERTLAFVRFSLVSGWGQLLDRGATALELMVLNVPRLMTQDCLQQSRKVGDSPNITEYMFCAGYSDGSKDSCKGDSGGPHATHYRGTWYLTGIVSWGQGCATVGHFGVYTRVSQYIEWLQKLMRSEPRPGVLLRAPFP
T1 sequence (P08709 61-212 limits assumed): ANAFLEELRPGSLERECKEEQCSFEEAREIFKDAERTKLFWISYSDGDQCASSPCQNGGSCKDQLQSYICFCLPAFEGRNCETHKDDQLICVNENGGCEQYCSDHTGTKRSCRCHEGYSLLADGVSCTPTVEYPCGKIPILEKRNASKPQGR
T1 sequence (P13726 33-295 partner): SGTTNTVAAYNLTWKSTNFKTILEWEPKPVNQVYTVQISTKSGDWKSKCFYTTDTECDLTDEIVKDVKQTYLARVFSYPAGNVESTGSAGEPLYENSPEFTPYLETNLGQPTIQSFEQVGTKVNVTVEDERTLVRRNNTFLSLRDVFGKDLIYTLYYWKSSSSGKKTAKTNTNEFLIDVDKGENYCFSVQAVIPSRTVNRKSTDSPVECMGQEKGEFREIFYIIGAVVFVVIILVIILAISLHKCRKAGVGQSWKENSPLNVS

| Compound | IC50 |
| --- | --- |
| COc1cc(C(Nc2ccc(C(=N)N)cc2)c2nn(-c3ncccn3)c(=O)[nH]2)cc2c1OCOCC2 (racemic) [Example 130, (R) and (S)-4-{[(4-methoxy-8,9-dihydro-5,7-dioxabenzocyclohepten-2-yl)-(5-oxo-1-pyrimidin-2-yl-4,5-dihydro-1H-[1,2,4]triazol-3-yl)methyl]amino}benzamidine acetate] | 10.6 nM |
| COc1cc(C(Nc2ccc(C(=N)N)cc2)c2nn(-c3ccccc3C(=O)O)c(=O)[nH]2)cc(C)n1 (racemic) [Example 38, (R) and (S)-2-{3-[(4-carbamimidoylphenylamino)-(2-methoxy-6-methylpyridin-4-yl)methyl]-5-oxo-4,5-dihydro-[1,2,4]triazol-1-yl}benzoic acid acetate] | 7.4 nM |
| COc1cc(C(Nc2ccc(C(=N)N)cc2)c2nn(-c3cccnn3)c(=O)[nH]2)ccc1OCC#N (racemic) [Example 144, (R) and (S)-4-{[(4-cyanomethoxy-3-methoxyphenyl)-(5-oxo-1-pyridazin-3-yl-4,5-dihydro-1H-[1,2,4]triazol-3-yl)methyl]amino}benzamidine acetate] | 7.7 nM |
| COc1cc(C(Nc2ccc(C(=N)N)cc2)c2nn(-c3ncccn3)c(=O)[nH]2)cc2c1OCC2OC (racemic) [Example 82, (R) and (S)-4-({(3,7-dimethoxy-2,3-dihydrobenzofuran-5-yl)-(5-oxo-1-pyrimidin-2-yl-4,5-dihydro-1H-[1,2,4]triazol-3-yl)methyl}amino)benzamidine acetate] | 7.5 nM |
| CCOc1ccc(F)c(C(Nc2ccc(C(=N)N)cc2)c2nn(-c3ncccn3)c(=O)[nH]2)c1 (racemic) [Example 96, 4-{[(R) and (S)-(5-ethoxy-2-fluorophenyl)-(5-oxo-1-pyrimidin-2-yl-4,5-dihydro-1H-[1,2,4]triazol-3-yl)methyl]amino}benzamidine acetate] | 17 nM |
| COc1cc(C(Nc2ccc(C(=N)N)cc2)c2nn(-c3[nH]ncc3C(=O)O)c(=O)[nH]2)c(F)c2c1OCCC2 (stereo not shown) [Example 189, 5-{3-[(4-Carbamimidoylphenylamino)-(5-fluoro-8-methoxychroman-6-yl)methyl]-5-oxo-4,5-dihydro-[1,2,4]triazol-1-yl}-1H-pyrazole-4-carboxylic acid] | 32.2 nM |
| COc1ccc(C(Nc2ccc(C(=N)N)c(O)c2)c2nn(-c3ccccc3C(=O)O)c(=O)[nH]2)cc1OC (racemic) [Example 183, 2-{3-[(R) and (S)-(4-carbamimidoyl-3-hydroxyphenylamino)-(3,4-dimethoxyphenyl)methyl]-5-oxo-4,5-dihydro-[1,2,4]triazol-1-yl}benzoic acid] | 10.6 nM |
| CCOc1cc(C(Nc2ccc(C(=N)N)cc2)c2nn(-c3ncccc3C)c(=O)[nH]2)ccc1OCC(=O)NC (stereo not shown) [Example 127, 2-(4-{(4-carbamimidoylphenylamino)-[1-(3-methylpyridin-2-yl)-5-oxo-4,5-dihydro-1H-[1,2,4]triazol-3-yl]methyl}-2-ethoxyphenoxy)-N-methylacetamide acetate] | 9.3 nM |
| COc1cc(C(Nc2ccc(C(=N)N)cc2)c2nn(-c3ncccc3F)c(=O)[nH]2)cc2c1OCCCO2 (racemic) [Example 30, (R) and (S)-4-({[1-(3-fluoropyridin-2-yl)-5-oxo-4,5-dihydro-1H-[1,2,4]triazol-3-yl]-(9-methoxy-3,4-dihydro-2H-benzo[b][1,4]dioxepin-7-yl)methyl}amino)benzamidine acetate] | 3.9 nM |
| COc1cc(F)c(C(Nc2ccc(C(=N)N)cc2)c2nn(-c3ccccc3C(N)=O)c(=O)[nH]2)cc1OC (racemic) [Example 109, (R) and (S)-2-{3-[(4-carbamimidoylphenylamino)-(2-fluoro-4,5-dimethoxyphenyl)methyl]-5-oxo-4,5-dihydro-1H-[1,2,4]triazol-1-yl}benzamide acetate] | 7.9 nM |
| COc1cc(C(Nc2ccc(C(=N)N)cc2)c2nn(-c3ncccn3)c(=O)[nH]2)c(F)c2c1OCCCO2 (racemic) [Example 42, (R) and (S)-4-{[(6-fluoro-9-methoxy-3,4-dihydro-2H-benzo[b][1,4]dioxepin-7-yl)-(5-oxo-1-pyrimidin-2-yl-4,5-dihydro-1H-[1,2,4]triazol-3-yl)methyl]amino}benzamidine acetate] | 3.6 nM |
| CCOc1cc(C(Nc2ccc(C(=N)N)cc2)c2nn(-c3ncccn3)c(=O)[nH]2)ccc1OC (racemic) [Example 17, (R) and (S)-4-{[(3-ethoxy-4-methoxyphenyl)-(5-oxo-1-pyrimidin-2-yl-4,5-dihydro-1H-[1,2,4]triazol-3-yl)methyl]amino}benzamidine acetate] | 7.5 nM |
| CCc1cc(OCCOC)cc(C(Nc2ccc(C(=N)N)cc2)c2nn(-c3ncccn3)c(=O)[nH]2)c1 (racemic) [Example 76, (R) and (S)-4-({[3-ethyl-5-(2-methoxyethoxy)phenyl]-(5-oxo-1-pyrimidin-2-yl-4,5-dihydro-1H-[1,2,4]triazol-3-yl)methyl}amino)benzamidine trifluoroacetate] | 5.2 nM |
| COc1cc(C(Nc2ccc(C(=N)N)cc2)c2nn(-c3ccccc3C(N)=O)c(=O)[nH]2)cc2c1OCCCO2 (racemic) [Example 214, (R) and (S)-2-{3-[(4-Carbamimidoylphenylamino)-(9-methoxy-3,4-dihydro-2H-benzo[b][1,4]dioxepin-7-yl)methyl]-5-oxo-4,5-dihydro[1,2,4]triazol-1-yl}benzoic acid amide acetate] | 3.5 nM |
| C=CCOc1cc(C(Nc2ccc(C(=N)N)cc2)c2nn(-c3ncccn3)c(=O)[nH]2)ccc1OC (racemic) [Example 118, (R) and (S)-4-{[(3-allyloxy-4-methoxyphenyl)-(5-oxo-1-pyrimidin-2-yl-4,5-dihydro-1H-[1,2,4]triazol-3-yl)methyl]amino}benzamidine acetate] | 7.3 nM |
| COc1cc(C(Nc2ccc(C(=N)N)cc2)c2nn(-c3ccccc3C(N)=O)c(=O)[nH]2)ccc1OCC(=O)N(C)C (stereo not shown) [Example 105, 2-{3-[(4-carbamimidoyl-phenylamino)-(4-dimethylcarbamoylmethoxy-3-methoxyphenyl)methyl]-5-oxo-4,5-dihydro-1H-[1,2,4]triazol-1-yl}benzamide trifluoroacetate] | 31.7 nM |
| COc1cc(C(Nc2ccc(C(=N)N)cc2)c2nn(-c3ncccn3)c(=O)[nH]2)c(F)c2c1OCCO2 (racemic) [Example 41, (R) and (S)-4-{[(5-fluoro-8-methoxy-2,3-dihydrobenzo[1,4]dioxin-6-yl)-(5-oxo-1-pyrimidin-2-yl-4,5-dihydro-1H-[1,2,4]triazol-3-yl)methyl]amino}benzamidine acetate] | 6.4 nM |

Continued, values first:

| IC50 | Compound |
| --- | --- |
| 2.4 nM | CCOc1cc(C(Nc2ccc(C(=N)N)cc2)c2nn(-c3ncccc3F)c(=O)[nH]2)ccc1OC (racemic) [Example 132, (R) and (S)-4-({(3-ethoxy-4-methoxyphenyl)-[1-(3-fluoro-pyridin-2-yl)-5-oxo-4,5-dihydro-1H-[1,2,4]triazol-3-yl]methyl}amino}benzamidine acetate] |
| 11.1 nM | COc1cc(OCCO)c(F)c(C(Nc2ccc(C(=N)N)cc2)c2nn(-c3ncsc3C(=O)O)c(=O)[nH]2)c1 (racemic) [Example 167, (R) and (S)-4-(3-{(4-carbamimidoylphenylamino)-[2-fluoro-3-(2-hydroxyethoxy)-5-methoxyphenyl]methyl}-5-oxo-4,5-dihydro[1,2,4]triazol-1-yl)thiazole-5-carboxylic acid] |
| 4.9 nM | COc1cc(C(Nc2ccc(C(=N)N)cc2)c2nn(-c3ccsc3C(=O)O)c(=O)[nH]2)cc(OCCO)c1OC (racemic) [Example 230, (R) and (S)-3-(3-{(4-Carbamimidoylphenylamino)-[3-(2-hydroxyethoxy)-4,5-dimethoxyphenyl]methyl}-5-oxo-4,5-dihydro-[1,2,4]triazol-1-yl)thiophene-2-carboxylic acid] |
| 11.5 nM | CCOc1cc(C(Nc2ccc(C(=N)N)cc2)c2nn(-c3ncccn3)c(=O)[nH]2)c(F)cc1OC (racemic) [Example 115, (R) and (S)-4-{[(5-ethoxy-2-fluoro-4-methoxyphenyl)-(5-oxo-1-pyrimidin-2-yl-4,5-dihydro-1H-[1,2,4]triazol-3-yl)methyl]amino}benzamidine acetate] |
| 10.3 nM | COc1cc(F)c(C(Nc2ccc(C(=N)N)cc2)c2nn(-c3ncccc3F)c(=O)[nH]2)cc1OC (stereo not shown) [Example 125, 4-({(2-fluoro-4,5-dimethoxyphenyl)-[1-(3-fluoropyridin-2-yl)-5-oxo-4,5-dihydro-1H-[1,2,4]triazol-3-yl]methyl}amino)benzamidine acetate] |
| 10 nM | COc1cc(F)c(C(Nc2ccc(C(=N)N)cc2)c2nn(-c3ncccc3OC)c(=O)[nH]2)cc1OC (stereo not shown) [Example 124, 4-({(2-fluoro-4,5-dimethoxyphenyl)-[1-(3-methoxypyridin-2-yl)-5-oxo-4,5-dihydro-1H-[1,2,4]triazol-3-yl]methyl}amino)benzamidine acetate] |
| 41.7 nM | COc1cc(OCCO)c(F)c(C(Nc2ccc(C(=N)N)cc2)c2nn(-c3ncsc3C(=O)O)c(=O)[nH]2)c1 (stereo not shown) [Example 182, 4-(3-{(4-carbamimidoylphenylamino)-[2-fluoro-3-(2-hydroxyethoxy)-5-methoxyphenyl]methyl}-5-oxo-4,5-dihydro[1,2,4]triazol-1-yl)thiazole-5-carboxylic acid trifluoroacetate] |
| 4 nM | COc1cc(C(Nc2ccc(C(=N)N)cc2)c2nn(-c3ncccc3N)c(=O)[nH]2)c(F)c2c1OCCC2 (stereo not shown) [Example 209, 4-{[[1-(3-Aminopyridin-2-yl)-5-oxo-4,5-dihydro-1H-[1,2,4]triazol-3-yl]-(5-fluoro-8-methoxychroman-6-yl)methyl]amino}benzamidine trifluoroacetate] |
